ChEMBL document CHEMBL2086254, “Synthesis and identification of novel indolo[2,3-a]pyrimido[5,4-c]carbazoles as a new class of anti-cancer agents” (Eur J Med Chem, 2012)

How the values were obtained:
Type in all cases: functional
[1] = test system: HL-60; experiment: Cytotoxicity against human HL60 cells after 48 hrs by SRB assay; conditions: HL-60, 48 h
[2] = test system: K562; experiment: Cytotoxicity against human K562 cells after 48 hrs by SRB assay; conditions: K562, 48 h
[3] = test system: RPMI-8226; experiment: Cytotoxicity against human RPMI8226 cells after 48 hrs by SRB assay; conditions: RPMI-8226, 48 h
[4] = test system: A549; experiment: Cytotoxicity against human A549 cells after 48 hrs by SRB assay; conditions: A549, 48 h
[5] = test system: HOP-62; experiment: Cytotoxicity against human HOP62 cells after 48 hrs by SRB assay; conditions: HOP-62, 48 h
[6] = test system: NCI-H322M; experiment: Cytotoxicity against human NCI-H322M cells after 48 hrs by SRB assay
[7] = test system: COLO 205; experiment: Cytotoxicity against human COLO205 cells after 48 hrs by SRB assay; conditions: COLO 205, 48 h
[8] = test system: HCC 2998; experiment: Cytotoxicity against human HCC2998 cells after 48 hrs by SRB assay; conditions: HCC 2998, 48 h
[9] = test system: SF-268; experiment: Cytotoxicity against human SF268 cells after 48 hrs by SRB assay; conditions: SF-268, 48 h
[10] = test system: SF-539; experiment: Cytotoxicity against human SF539 cells after 48 hrs by SRB assay; conditions: SF-539, 48 h
[11] = test system: SNB-19; experiment: Cytotoxicity against human SNB19 cells after 48 hrs by SRB assay; conditions: SNB-19, 48 h
[12] = test system: LOX IMVI; experiment: Cytotoxicity in human LOXIMVI cells after 48 hrs by SRB assay
[13] = test system: Malme-3M; experiment: Cytotoxicity against human MALME-3M cells after 48 hrs by SRB assay
[14] = test system: UACC-62; experiment: Cytotoxicity against human UACC62 cells after 48 hrs by SRB assay; conditions: UACC-62, 48 h
[15] = test system: IGROV-1; experiment: Cytotoxicity against human IGROV1 cells after 48 hrs by SRB assay; conditions: IGROV-1, 48 h
[16] = test system: OVCAR-8; experiment: Cytotoxicity against human OVCAR8 cells after 48 hrs by SRB assay; conditions: OVCAR-8, 48 h
[17] = test system: NCI/ADR-RES; experiment: Cytotoxicity against human NCI/ADR-RES cells after 48 hrs by SRB assay
[18] = test system: 786-0; experiment: Cytotoxicity against human 786-0 cells after 48 hrs by SRB assay; conditions: 786-0, 48 h
[19] = test system: A498; experiment: Cytotoxicity against human A498 cells after 48 hrs by SRB assay; conditions: A498, 48 h
[20] = test system: TK-10; experiment: Cytotoxicity against human TK10 cells after 48 hrs by SRB assay; conditions: TK-10, 48 h
[21] = test system: MCF7; experiment: Cytotoxicity against human MCF7 cells after 48 hrs by SRB assay; conditions: MCF7, 48 h
[22] = Cytotoxicity against human Hs 578T cells after 48 hrs by SRB assay
[23] = test system: T47D; experiment: Cytotoxicity against human T47D cells after 48 hrs by SRB assay
[24] = test system: NCI-H23; experiment: Cytotoxicity against human NCI-H23 cells after 48 hrs by SRB assay; conditions: NCI-H23, 48 h
[25] = test system: KM12; experiment: Cytotoxicity against human KM12 cells after 48 hrs by SRB assay; conditions: KM12, 48 h
[26] = test system: SF-295; experiment: Cytotoxicity against human SF295 cells after 48 hrs by SRB assay; conditions: SF-295, 48 h
[27] = test system: MDA-MB-435; experiment: Cytotoxicity against human MDA-MB-435 cells after 48 hrs by SRB assay; conditions: MDA-MB-435, 48 h
[28] = test system: OVCAR-3; experiment: Cytotoxicity against human OVCAR3 cells after 48 hrs by SRB assay; conditions: OVCAR-3, 48 h
[29] = test system: SK-OV-3; experiment: Cytotoxicity against human SKOV3 cells after 48 hrs by SRB assay; conditions: SK-OV-3, 48 h
[30] = test system: ACHN; experiment: Cytotoxicity against human ACHN cells after 48 hrs by SRB assay
[31] = test system: CAKI-1; experiment: Cytotoxicity against human Caki1 cells after 48 hrs by SRB assay; conditions: CAKI-1, 48 h
[32] = test system: UO-31; experiment: Cytotoxicity against human UO31 cells after 48 hrs by SRB assay; conditions: UO-31, 48 h
[33] = test system: SK-MEL-5; experiment: Cytotoxicity against human SK-MEL-5 cells after 48 hrs by SRB assay; conditions: SK-MEL-5, 48 h
[34] = test system: HOP-92; experiment: Cytotoxicity against human HOP92 cells assessed as cell growth at 10 uM after 48 hrs by SRB assay relative to control; conditions: HOP-92, 48 h, read-out: Activity
[35] = read-out: LC50 (the source's name)

## Cn1c2ccccc2c2c3nc(N)[nH]c(=O)c3c3c4ccccc4n(C)c3c21
[1]
  GI50: 4.19 µM
  TGI: 38 µM
[1]; [35]
  CC50: > 100 µM
[2]
  GI50: 3.93 µM
  TGI: 40.3 µM
[2]; [35]
  CC50: > 100 µM
[3]
  GI50: 11.1 µM
  TGI: 65.6 µM
[3]; [35]
  CC50: > 100 µM
[4]
  GI50: 5.8 µM
  TGI: > 100 µM
[4]; [35]
  CC50: > 100 µM
[5]
  GI50: 41 µM
  TGI: > 100 µM
[5]; [35]
  CC50: > 100 µM
[6]
  GI50: 5.3 µM
  TGI: > 100 µM
[6]; [35]
  CC50: > 100 µM
[7]
  GI50: 7.99 µM
  TGI: 39.4 µM
[7]; [35]
  CC50: > 100 µM
[8]
  GI50: 6.08 µM
  TGI: > 100 µM
[8]; [35]
  CC50: > 100 µM
[9]
  GI50: 15.8 µM
  TGI: > 100 µM
[9]; [35]
  CC50: > 100 µM
[10]
  GI50: 18.4 µM
  TGI: 56.6 µM
[10]; [35]
  CC50: > 100 µM
[11]
  GI50: > 100 µM
  TGI: > 100 µM
[11]; [35]
  CC50: > 100 µM
[12]
  GI50: 4.7 µM
  TGI: 31.1 µM
[12]; [35]
  CC50: > 100 µM
[13]
  GI50: 14.5 µM
  TGI: 74.8 µM
[13]; [35]
  CC50: > 100 µM
[14]
  GI50: 16.1 µM
  TGI: > 100 µM
[14]; [35]
  CC50: > 100 µM
[15]
  GI50: 31.3 µM
  TGI: > 100 µM
[15]; [35]
  CC50: > 100 µM
[16]
  GI50: 3.82 µM
  TGI: > 100 µM
[16]; [35]
  CC50: > 100 µM
[17]
  GI50: 3.87 µM
  TGI: > 100 µM
[17]; [35]
  CC50: > 100 µM
[18]
  GI50: 7.7 µM
  TGI: 54.4 µM
[18]; [35]
  CC50: > 100 µM
[19]
  GI50: 27.4 µM
  TGI: 97.1 µM
[19]; [35]
  CC50: > 100 µM
[20]
  GI50: 7.14 µM
  TGI: > 100 µM
[20]; [35]
  CC50: > 100 µM
[21]
  GI50: 2.13 µM
  TGI: 44.1 µM
[21]; [35]
  CC50: > 100 µM
[22]
  GI50: 10.2 µM
  TGI: > 100 µM
[22]; [35]
  CC50: > 100 µM
[23]
  GI50: 5.1 µM
  TGI: > 100 µM
[23]; [35]
  CC50: > 100 µM
[24]
  GI50: 3.51 µM
  TGI: > 100 µM
[24]; [35]
  CC50: > 100 µM
[25]
  GI50: 3.24 µM
  TGI: 32.3 µM
[25]; [35]
  CC50: > 100 µM
[26]
  GI50: 3.68 µM
  TGI: 12.9 µM
[26]; [35]
  CC50: 76.7 µM
[27]
  GI50: 3.39 µM
  TGI: 22.3 µM
[27]; [35]
  CC50: > 100 µM
[28]
  GI50: 9.07 µM
  TGI: 25.6 µM
[28]; [35]
  CC50: 69.8 µM
[29]
  GI50: 3.56 µM
  TGI: > 100 µM
[29]; [35]
  CC50: > 100 µM
[30]
  GI50: 1.11 µM
  TGI: > 100 µM
[30]; [35]
  CC50: > 100 µM
[31]
  GI50: 1.33 µM
  TGI: > 100 µM
[31]; [35]
  CC50: > 100 µM
[32]
  GI50: 1.37 µM
  TGI: > 100 µM
[32]; [35]
  CC50: > 100 µM
[33]
  GI50: 3.25 µM
  TGI: 13.7 µM
[33]; [35]
  CC50: 37.9 µM

## Cn1cc(-c2[nH]c(=S)[nH]c(=O)c2-c2cn(C)c3ccccc23)c2ccccc21
[34]
  growth at 10 µM: 69.8%
